Data published in patent US20210106703A1, “RADIOIMMUNOCONJUGATES IN COMBINATION WITH OTHER DRUGS AS TREATMENT AGAINST NHL” (Nordic Nanovector ASA, priority 2017, published 2021).
Entries after “also recorded” stand apart in the source; their conditions may differ.

Legend:
Type in all cases: cell-based, human
RIVA cells = assay: Real Time Glo viability screen, Betalutin with PARP or cell cycle kinase inhibitors (Examples 4, 7); conditions: for BLISS analysis, combination with Betalutin versus expected additive effect: significant = more than twice the SD of Betalutin alone
Method: (§1) DLBCL cell lines U2932 and RIVA were maintained in RPMI 1640-GlutaMAX medium (Gibco) supplemented with 15% fetal bovine serum (Biowest) and 1% penicillin-streptomycin (Gibco) at 37° C. in a humidified atmosphere containing 5% CO2. Cells were split twice a week 1:7 and diluted 2-4 days before start of the experiment, to ensure they are in exponential growth at the beginning of the experiment.
(§2) Cells were treated in 6-well plates without shaking for 18 h with Betalutin at a final concentration of 1 μg/ml for U2932 and 0.5 μg/ml for RIVA. After treatment, PBS was added to the cells, and the cells pelleted. Cells were first resuspended in 1 ml PBS, then washed twice in PBS and finally diluted in growth medium to a final concentration of 2.5*10^6 cells/ml.
(§3) Cells density measurements were performed the day before seeding. Based on these measurements cells were seeded in 384-well plates at a density of 3000 cells per well in a culturing volume of 25 μl (resulting in start titers: 120 000 cells/ml) using a robot. For measuring viability using Real Time Glo (Promega, WI, USA), the Cell Viability Substrate and NanoLuc® Enzyme were diluted 1:500 in growth medium, and 25 μL of diluted reagents dispensed in each well by a robot. All reagents were equilibrated to 37° C. Cells were incubated with the reaction mix for 1 h at 37° C. before the first measurement of luminescence. Measurements were repeated as often as required within 72 h after adding the reagents. A Tecan SPARK 10M plate reader (Tecan, SUI) was used to measure luminescence, with the integration time set to 1 sec.
(§4) The screen was performed in 384-well plate with selected PARP inhibitors (stock solutions 10 mM in DMSO) acquired from SelleckChem (Selleckchem, TX, USA). To include no-drug controls, the drug panel (Table 6) was divided on two plates. Due to previous observations of cells growing poorly in wells located at the edges of the plates, the two outer most rows and columns were not used. As previously mentioned three different drug concentrations were used in the screen, 10 nM and 1 μM for U2932 and 10 and 100 nM for RIVA.
(§5) Candidate hits were identified using the Bliss Independence test for synergy. The effect of each drug alone at each concentration was calculated as the fraction of dead cells as compared to control cells Fa=(1−(RLUdrug/avgRLUcontrol), a similar calculation was performed for the effect of Betalutin alone Fb=(1−(avgRLUBetalutin/avgRLUcontrol). Through the following equation we found the expected additive effect of the combination of drug+Betalutin: Expected effect (E)Fab=(Fa+Fb−Fa*Fb). We subtracted this expected effect from the measured effect (M)Fab=(1−(RLUDrug+Betalutin/avgRLUcontrol) to get a value (Diff)Fab representing how the measured effect differed from the expected additive effect of the combination. This value was normalized to the survival fraction of drug alone: (Diff)Fab#=(Diff)Fab/(1−Fa). Furthermore, to get a measure of how big the well-to-well variation was, we calculated the standard deviation for the effect of Betalutin alone in the 48 control wells on each plate: (STDEV)Fb=(RLUBetalutin/RLUcontrol)−(averageRLUBetalutin/averageRLUcontrol). Drugs with a value (Diff)Fab#two times higher than the standard deviation of Betalutin treated controls, (STDEV)Fb, were scored as hits.
as §3, with “Measurements were repeated as often as required within 72 h after adding the reagents. A Tecan SPARK 10M plate reader (Tecan, SUI) was used to measure luminescence, with the integration time set to 1 sec.” left out

U-2932 cells [1] = assay: Real Time Glo viability screen and validation, Betalutin with PARP or cell cycle kinase inhibitors (Examples 4, 7); conditions: for BLISS analysis, combination with Betalutin versus expected additive effect: U-2932, significant = more than twice the SD of Betalutin alone
Method: as §1, §2, §3, §4, §5
as §3, with “Measurements were repeated as often as required within 72 h after adding the reagents. A Tecan SPARK 10M plate reader (Tecan, SUI) was used to measure luminescence, with the integration time set to 1 sec.” left out

U-2932 cells [2] = assay: as above; conditions: for Effect of monotreatment on proliferation: U-2932, validation screen, 0-1280 nM
Ramos cells [3] = assay: Cell cycle analysis (PI, Muse flow cytometer); conditions: 6 MBq/mL, at 24 h
Method: (§6) Cells were harvested at day 0, 2 h, 18 h, 1 d, 2 d, 3 d, of RIT then fixed in 70% ethanol at −20° C. for 3 hours and stained with Cell Cycle kit (with PI) reagent from Merck Millipore in the dark for 30 min at room temperature before analysis using a Muse® flow cytometer. The percentage of cells in G0/G1, S and G2/M phases was then calculated (mean of three experiments in triplicate).
(§7) At different times after start of incubation, proteins were extracted to measure the CDK1 phosphorylation levels, in parallel, proliferation was determined and at 18 h and 24 h after start of incubation, the percentage of cells in G2/M was assessed (experiments were performed three time except the cell cycle analysis).
(§8) Cells were harvested at 0 h, 2 h, 18 h, 1 d, 2 d, 3 d, and fixed in 70% ethanol at −20° C. for at least 3 h. After staining with the Muse® Cell Cycle Assay Kit (Merck Millipore, Molsheim, France) using propidium iodide in the dark at room temperature for 30 min, cell cycle distribution was analyzed using a Muse® flow cytometer. The percentage of cells in the G0/G1, S and G2/M was calculated (mean of three experiments in triplicate) and the effect of WEE-1 and MYT-1 kinase inhibitors on the cell cycle was assessed.

DOHH2 cells [4] = assay: Cell cycle analysis (PI, Muse flow cytometer); conditions: DOHH2, 6 MBq/mL, at 24 h
Method: as §6, §7, §8

Rec-1 cells [5] = assay: Cell cycle analysis (PI, Muse flow cytometer); conditions: Rec-1, 6 MBq/mL, at 24 h
Method: as §6, §7, §8

[6] = tested on: CD133 and CD44 at the DOHH2 cell surface; assay: Expression of stem cell markers after RIT (flow cytometry); conditions: DOHH2, 6 MBq/mL for 18 h, up to 9 days post-RIT
Method: Cells were harvested at 0, 2 h, 18 h and each day from 1 d to 10 d of RIT. At each time point, cells were fixed with PFA 4% for 10 minutes, washed twice with PBS and sterilely stored in PBS at 4° C. Stem cell markers were detected with anti-CD133-FITC (clone: AC133, Milteniy) and anti-CD44-APC (clone: IM7, Merck Millipore). 0.5×10^6 cells were saturated for 1 h in PBS-BSA 0.5%. Next cells were centrifuged and incubated with anti-CD133-FITC (2 μL) and anti-CD44-APC (0.125 μg) for 1 h at room temperature in the dark. Finally, cells were rinsed twice and analysed using Gallios® flow cytometer (Beckman Coulter).
For a preliminary study, investigation of the expression of CD133 and CD44 at the surface of cells treated for 18 h with 6 MBq/mL ^177Lu-lilotomab and ^177Lu-rituximab was done.

Ramos cells [7] = assay: Apoptosis induction (Annexin V/7-AAD, Muse flow cytometer); conditions: 6 MBq/mL radiolabelled mAb for 18 h, peak time 72 h
Method: (§9) Cells were harvested at 0, 2 h, 18 h, 1 d, 2 d, 3 d of RIT. At each time point, apoptosis was detected with […] from Merck Millipore (Annexin V Kit with 7-AAD) in the dark for 30 min at room temperature before analysis using Muse® flow cytometer

DOHH2 cells [8] = assay: as above; conditions: DOHH2, 6 MBq/mL radiolabelled mAb for 18 h, peak time 72 h
Method: as §9

Rec-1 cells [9] = assay: as above; conditions: Rec-1, 6 MBq/mL radiolabelled mAb for 18 h, peak time 72 h
Method: as §9

[10] = RIVA, drug 100 nM + Betalutin 0.5 μg/ml
[11] = U-2932, drug 1 μM + Betalutin 1 μg/ml

Compound | Growth inhibitory effect, drug alone (RIVA cells; RIVA, drug 10 nM) | Growth inhibitory effect, drug combined with Betalutin (RIVA cells; [10]) | BLISS analysis, combination with Betalutin versus expected additive effect (RIVA cells; RIVA) | Growth inhibitory effect, drug alone (U-2932 cells [1]; U-2932, drug 10 nM) | Growth inhibitory effect, drug combined with Betalutin (U-2932 cells [1]; [11]) | BLISS analysis, combination with Betalutin versus expected additive effect (U-2932 cells [1]) | Effect of monotreatment on proliferation (U-2932 cells [2]) | also measured
CN(C)Cc1ccc(-c2nc3cccc4c3n2CCNC4=O)cc1 [AG-14361] | only a minor inhibitory effect; also recorded: no growth inhibitory effect | potentiated the proliferation inhibitory effect of Betalutin; also recorded: stronger growth inhibition than AG-14361 alone | strongest combinatory effect | only a minor inhibitory effect; also recorded: no growth inhibitory effect | potentiated the proliferation inhibitory effect of Betalutin; also recorded: stronger growth inhibition than AG-14361 alone | strongest combinatory effect | – | Growth inhibitory effect, drug combined with Betalutin (RIVA cells; RIVA, drug 10 nM + Betalutin 0.5 μg/ml): did not enhance the growth inhibitory effect of Betalutin; Growth inhibitory effect, drug alone (RIVA cells; RIVA, drug 100 nM): inhibited proliferation; Growth inhibitory effect, drug combined with Betalutin (U-2932 cells [1]; U-2932, drug 10 nM + Betalutin 1 μg/ml): did not enhance the growth inhibitory effect of Betalutin; Growth inhibitory effect, drug alone (U-2932 cells [1]; U-2932, drug 1 μM): inhibited proliferation
CC[C@@H]1C(=O)N(C)c2cnc(Nc3ccc(C(=O)NC4CCN(C)CC4)cc3OC)nc2N1C1CCCC1 [BI2536] | – | – | significance was only reached in U-2932 cells | – | – | significance was only reached in U-2932 cells | blocked proliferation almost completely at concentrations above 40 nM | Drug concentration at which synergism with Betalutin is evident (CI, Chou-Talalay) (U-2932 cells [2]; U-2932, Betalutin 0.5, 1 or 2 μg/ml, day 5): 40 nM; inhibition at 0.01 µM (RIVA cells; Homo sapiens, read-out: Inhibition of proliferation, drug alone): > 80%; inhibition at 0.01 µM (U-2932 cells [1]; Homo sapiens, U2932, read-out: Inhibition of proliferation, drug alone): > 80%
C[C@@H](Oc1cc(-n2cnc3ccc(CN4CCN(C)CC4)cc32)sc1C(N)=O)c1ccccc1C(F)(F)F [GSK461364] | less potency than BI2536 | – | significantly greater than the expected additive effect | less potency than BI2536 | – | significantly greater than the expected additive effect | blocked proliferation almost completely at concentrations above 40 nM | –
COc1cc(Nc2ncc3c(n2)-c2ccc(Cl)cc2C(c2c(F)cccc2OC)=NC3)ccc1C(=O)O [MLN8237] | insufficient to inhibit proliferation | enhanced | significantly greater effect than the expected additive effect | insufficient to inhibit proliferation | enhanced | – | impaired proliferation at concentrations up to 160 nM | inhibition at 0.1 µM (RIVA cells; Homo sapiens, 144 h, RIVA, drug 100 nM, day 6, read-out: Growth inhibition, drug alone): ~60%; inhibition at 1 µM (U-2932 cells [1]; Homo sapiens, U2932, 144 h, U-2932, drug 1 μM, day 6, read-out: Growth inhibition, drug alone): ~40%
CNCc1ccc(-c2[nH]c3cc(F)cc4c3c2CCNC4=O)cc1 [Rucaparib] | – | potentiated the proliferation inhibitory effect of Betalutin; also recorded: stronger growth inhibition than Betalutin alone | larger than the expected additive effect | – | potentiated the proliferation inhibitory effect of Betalutin; also recorded: stronger growth inhibition than Betalutin alone | larger than the expected additive effect | – | Growth inhibitory effect, drug alone (RIVA cells; RIVA, all tested concentrations (10, 100 nM)): no growth inhibitory effect; Growth inhibitory effect, drug alone (U-2932 cells [1]; U-2932, all tested concentrations (10 nM, 1 μM)): no growth inhibitory effect
^177Lu-rituximab | – | – | – | – | – | – | – | Proportion of cells showing a G2/M cell cycle arrest (Ramos cells [3]): 56±13%; Proportion of cells showing a G2/M cell cycle arrest (DOHH2 cells [4]): 38±2%; Proportion of cells showing a G2/M cell cycle arrest (Rec-1 cells [5]): 40±11%; Proportion of cells expressing CD44 and CD133 [6]: strongly increased; Apoptosis level (Ramos cells [7]): 56±12%; Apoptosis level (DOHH2 cells [8]): 97±3%; Apoptosis level (Rec-1 cells [9]): 79±16%
